Consider five substances from patent US12065468B2, “Heme-binding small peptide” (priority 2021, dated 2024).

The conditions of assay [1]: literature; read-out: KD for heme; cited from earlier work.
A short description of assay [2]: Biolayer interferometry of heme binding. The conditions noted are these: compared with NCR247 (L-enantiomer). An excerpt:
Biotinylation of heme: Hemin was biotinylated using the method exactly as described previouslyl^16. Biotin hydrazide, DCC was purchased from Sigma. COSMOSIL™ 5C18-AR-II Packed Column, 4.6 mm I.D.×150 mm from Nacalai USA (San Diego, CA) was used to separate the products. LC-MS was used to verify the correct molecular weight (969.4 Da) of biotinylated heme (in which only one of the two propionate groups of protoheme was conjugated with biotin hydrazide) as described above.
Biolayer interferometry: Biolayer interferometry was carried out using a ForteBio Octet RED96™ biolayer interferometer, following the manufacturer's instructions for a standard kinetic assay. Streptavidin-coated biosensor tips were incubated in 200 μl assay buffer (Water [pH 7.4]), each for 60s. Then biotinylated heme (or NCR247 in the case of Fe(III) PPIX dimethyl ester chloride) was loaded onto each biosensor tip at the defined concentration until the binding signal reached a value of >1.4. Biosensor tip loading was followed by incubation in assay buffer for 60s. Association between the ligand-heme and the analyte-various variants of NCR247 (Increasing concentrations in assay buffer) was observed over a time frame of ˜116 s, in assay buffer. To stop binding kinetics for dissociation, the biosensor tips were placed back into assay buffer not containing any analyte, for 120 s. Curves were fit with Global fit analysis and Data analysis and KD calculation was performed using Fortebio™ data analyses 8.2 software as described previously^89.
Background: Biolayer interferometry detects binding as a change in optical thickness at a sensor tip.

The nature of assay [3]: UV-Vis spectroscopy / colour change on heme addition. It counts as binding. The conditions noted are these: heme added to peptide, ferric heme. The procedure:
Heme preparation: Hemin solutions were always prepared in 0.1 M NaOH and used within 30 min of preparation. 1:1000 and 1:500 dilution of the stock solution was made and stock concentration was measured by pyridine hemochrome assay as described previously^85 by measuring the absorption at 557 nm using the extinction coefficient of pyridine hemochromogen (34.7 mM^−1 cm^−1).
UV-VIS spectroscopy: All absorption spectra were collected in a Tecan Spark™ 10 M microplate reader using black polystyrene 96-well plates. Absorbance from 300 nm to 700 nm was recorded with a 5 nm interval after an initial shaking at 100 rpm for 15 secs. Heme binding to synthesized peptide: Water (pH 7.4) was used in all reactions and was first added to the wells. Peptides solubilized in water were added and then heme solubilized in 0.1 M NaOH was added, mixed thoroughly and measurements were taken immediately. Peptide and heme volume were kept to a maximum of 5 ul in volume. For all the absorption curves (except Extended FIG. 3a) […] was used. The same was also repeated with 0.1 M Tris buffer (pH 7.4) as a base buffer instead of water.

The subject of assay [4] is Sinorhizobium meliloti. The experiment in a line: S. meliloti cell death in 24 hours (plating). It counts as cell-based.
Assay [5] concerns Sinorhizobium meliloti. The experiment in a line: S. meliloti growth curve. The note with it: increasing amounts of peptide; minimal medium. It counts as cell-based. On the procedure:
Growth curve: All growth curve experiments were performed in a Tecan SPARK 10M microplate reader using polystyrene flat bottomed, non-treated, sterile 96 well plates. Overnight cultures grown in LBMC were washed and were subcultured (1:100 dilution) in minimal medium supplemented with respective iron concentrations. The plates were programed to continuously shake at 150 rpm and temperature maintained at 30° C. Optical density was measured at 600 nm every 60 minutes.

What is called Kd is a measure of binding affinity in units of concentration. On to “Aβ (1-42) peptide: human Aβ amyloid peptide derived from cleavage of the amyloid precursor protein”, for which the Kd in assay [1] was 140 nM.

For “RNGCIVDARCPYQKCSYPLYCRRR [M. sativa (alfalfa) NCR247 ortholog, NCR247 ortholog of M. sativa with a 4-amino acid change]”, the “heme binding affinity, in words” value in assay [2] is given as “binds heme with the same affinity”.

For the substance “RNGCIVDPRCPYQQCRRPLYCAAA [NCR247 (RRR to AAA mutant)]”, the “heme binding (absorption peaks 366 nm, ~450 nm; colour change)” value in assay [3] is “binds heme”. Moreover, the “Cell death in 24 hours” value in assay [4] (6 uM peptide) is reported as “No cell death observed”. Also, the “reduction in number of S. meliloti cells (bactericidal effect)” value in assay [4] (incubated 24 hours, plated in non-selective medium) is “causes no reduction in number of S. meliloti cells”. Further, the “inhibition of growth of S. meliloti (bacteriostatic effect)” value in assay [5] is reported as “does not inhibit the growth of Sinorhizobium meliloti”.

With haempexin: heme scavenger, the Kd in assay [1] was less than 1000 nM.

Consider hemoglobin, for which the Kd in assay [1] is 10 nM.
